In US9890133B2 (priority 2011, dated 2018):
In brackets after ≈: the same amount, converted by molar mass. Like-named read-outs stand apart in the source and are kept apart here.

What was measured:
[1] = tested on: Rhino 39; assay: Multicycle CPE reduction assay, Rhino 39; format: cell-based; conditions: incubation at 37° C. in HeLa cells
Protocol: (§1) The test compounds were evaluated for anti-picornavirus activity by a multicycle cytopathic effect (CPE) reduction assay. The antiviral activity was initially determined using an MTS [3-(4,5-dimethylthiazol-2-yl)-5-(3-carboxymethoxyphenyl)-2-(4-sulfophenyl-2H-tetrazolium]-based CPE reduction assay.
(§2) In this regard, cells grown to confluence in 96-well plates were infected with 100 50% cell culture infective doses (CCID50) of virus. After an adsorption period of 2 hrs at 37° C., virus was removed and serial dilutions of the compounds were added. […] After removal of the medium, 90 μl of a culture medium and 10 μl of MTS-phenazine methosulfate (Promega, Leiden, The Netherlands) were added to each well. After an incubation period of 2 hrs at 37° C., the optical density (OD) of each well was read at 498 nm in a microplate reader.
(§3) CPE values for evaluating antiviral activity were calculated using the following Mathematic Formula 3: […]
(§4) The 50% effective concentration (EC50) and the 50% cytotoxic concentration (CC50) were defined as the concentrations of compound that offered 50% protection against virus-induced CPE and that killed cells by 50%, respectively, and were calculated using logarithmic interpolation.

[2] = tested on: Rhino 2; assay: Multicycle CPE reduction assay, Rhino 2; format: cell-based; conditions: incubation at 37° C. in HeLa cells
Protocol: as §1, §2, §3, §4

[3] = tested on: Rhino 14; assay: Multicycle CPE reduction assay, Rhino 14; format: cell-based; conditions: incubation at 37° C. in HeLa cells
Protocol: as §1, §2, §3, §4

[4] = tested on: Rhino 29; assay: Multicycle CPE reduction assay, Rhino 29; format: cell-based; conditions: incubation at 37° C. in HeLa cells
Protocol: as §1, §2, §3, §4

[5] = Cytotoxicity (CC50), MTS-based assay (Experimental Example 2); format: cell-based
Protocol: as §1, §2
CPE values for evaluating cytotoxicity were calculated using the following Mathematic Formula 4: […]
as §4

[6] = tested on: Rhino 70; assay: Multicycle CPE reduction assay, Rhino 70; format: cell-based
Protocol: as §1, §2, §3, §4

[7] = tested on: Echo 11; assay: Multicycle CPE reduction assay, Echo 11; format: cell-based; conditions: BGM, read-out: Echo 11 EC50
Protocol: as §1, §2, §3, §4

[8] = tested on: Poliovirus 3; assay: microbe, parasite or virus in culture; format: cell-based; conditions: Enterovirus C, read-out: Poliovirus3 EC50
[9] = tested on: Polio 1; assay: organism not typed; format: cell-based; conditions: BGM, read-out: Polio 1 EC50
[10] = tested on: Coxsackie A9; assay: Multicycle CPE reduction assay, Coxsackie A9; format: cell-based; conditions: incubation at 37° C. in BGM cells
Protocol: as §1, §2, §3, §4

[11] = tested on: Entero 71; assay: Multicycle CPE reduction assay, Entero 71; format: cell-based; conditions: incubation at 37° C. in RD cells
Protocol: as §1, §2, §3, §4

[12] = tested on: Polio 3; assay: organism not typed; format: cell-based; conditions: BGM, read-out: Polio 3 EC50
[13] = tested on: Polio 2; assay: organism not typed; format: cell-based; conditions: BGM, read-out: Polio 2 EC50
[14] = tested on: Rhino 63; assay: Multicycle CPE reduction assay, Rhino 63; format: cell-based; conditions: incubation at 37° C. in HeLa cells
Protocol: as §1, §2, §3, §4

[15] = tested on: Rhino 89; assay: Multicycle CPE reduction assay, Rhino 89; format: cell-based; conditions: HeLa, read-out: Rhino 89 EC50
Protocol: as §1, §2, §3, §4

[16] = tested on: Rhino 45; assay: Multicycle CPE reduction assay, Rhino 45; format: cell-based; conditions: incubation at 37° C. in HeLa cells
Protocol: as §1, §2, §3, §4

[17] = tested on: Rhino 41; assay: Multicycle CPE reduction assay, Rhino 41; format: cell-based; conditions: incubation at 37° C. in HeLa cells
Protocol: as §1, §2, §3, §4

[18] = in vitro; conditions: human
[19] = tested on: Rhino 15; assay: Multicycle CPE reduction assay, Rhino 15; format: cell-based; conditions: incubation at 37° C. in HeLa cells
Protocol: as §1, §2, §3, §4

[20] = tested on: Echo 9; assay: Multicycle CPE reduction assay, Echo 9; format: cell-based
Protocol: as §1, §2, §3, §4

[21] = tested on: Rhino 85; assay: Multicycle CPE reduction assay, Rhino 85; format: cell-based; conditions: incubation at 37° C. in HeLa cells
Protocol: as §1, §2, §3, §4

[22] = tested on: Rhino 9; assay: Multicycle CPE reduction assay, Rhino 9; format: cell-based; conditions: incubation at 37° C. in HeLa cells
Protocol: as §1, §2, §3, §4

[23] = tested on: Rhino 59; assay: Multicycle CPE reduction assay, Rhino 59; format: cell-based; conditions: incubation at 37° C. in HeLa cells
Protocol: as §1, §2, §3, §4

[24] = tested on: Rhino 42; assay: Multicycle CPE reduction assay, Rhino 42; format: cell-based; conditions: incubation at 37° C. in HeLa cells
Protocol: as §1, §2, §3, §4

[25] = tested on: Rhino 86; assay: Multicycle CPE reduction assay, Rhino 86; format: cell-based; conditions: incubation at 37° C. in HeLa cells
Protocol: as §1, §2, §3, §4

[26] = tested on: Rhino 72; assay: Multicycle CPE reduction assay, Rhino 72; format: cell-based; conditions: incubation at 37° C. in HeLa cells
Protocol: as §1, §2, §3, §4

[27] = tested on: Coxsackie A21; assay: Multicycle CPE reduction assay, Coxsackie A21; format: cell-based; conditions: MRC5; incubation at 37° C. in MRC-5 cells
Protocol: as §1, §2, §3, §4

[28] = tested on: Coxsackie A16; assay: Multicycle CPE reduction assay, Coxsackie A16; format: cell-based; conditions: MRC5; incubation at 37° C. in MRC-5 cells
Protocol: as §1, §2, §3, §4

[29] = HeLa, read-out: Rhino 70 EC50, incubation at 37° C. in HeLa cells

Row | SMILES | EC50 [1] | EC50 [2] | EC50 [4] | CC50 at 3 days [5] | EC50 [7] | melting point | EC50 [9] | EC50 [10] | EC50 [11] | EC50 [12] | EC50 [13] | EC50 [14] | EC50 [15] | EC50 ([16]; HeLa) | EC50 [17] | CC50 [18] | CC50 ([18]; Picorana CC50) | EC50 [19] | EC50 [21] | EC50 [22] | further results
1 | CC(C)c1ccc2c(c1)O[C@@]1(O)c3cccc(N)c3C(=O)[C@@]21O [Example 46, 1-Amino-4b,9b-dihydroxy-7-isopropyl-4bH-benzo[d]indeno[1,2-b]furan-10(9bH)-one] | 3000 ± 170 nM | > 10000 nM | 4600 ± 720 nM | > 100000 nM | 2.3 ± 0.88 nM | 180 to 182 °C | 68 nM | 1.7 nM | 3.1 nM | 43 ± 17 nM | 18 ± 1.9 nM | 8500 ± 130 nM | 340 ± 860 nM | ≤ 78 nM | 470 ± 36 nM | 18.3 µg/mL (≈ 58.9 µM) | 9.42 µg/mL (≈ 30.3 µM) | 2800 ± 260 nM | 6200 ± 700 nM | 3500 ± 150 nM | EC50 [3]: < 10 nM; EC50 ([6]; HeLa, incubation at 37° C. in HeLa cells, read-out: Rhino 70 EC50): ≤ 78 nM; EC50 ([6]; read-out: Rhino 70 EC50, incubation at 37° C. in HeLa cells, listed as Ex. 46): > 78 nM; EC50 [8]: < 0.01 µg/mL; EC50 ([16]; listed as Ex. 46): < 78 nM; EC50 ([20]; MRC5, read-out: Echo 9 EC50): 3.5 nM
2 | CC(=O)NC12C(=O)c3ccccc3C1(O)Oc1cc(C(C)C)ccc12 (stereo not drawn) [Example 66, N-(4b-Hydroxy-7-isopropyl-10-oxo-4b,10-dihydro-5-oxa-indeno[2,1-a]inden-9b-yl)-acetamide] | 1800 ± 370 nM | 5900 ± 250 nM | 6400 ± 830 nM | > 100000 nM | 7.2 ± 0.18 nM | – | 690 ± 170 nM | 8.3 ± 0.43 nM | 25 ± 0.92 nM | 580 ± 6.9 nM | 230 ± 20 nM | > 10000 nM | 630 ± 23 nM | 1700 ± 460 nM | 600 ± 26 nM | – | 44.7 µg/mL (≈ 133 µM) | 4600 ± 1300 nM | > 5800 nM | 2300 ± 700 nM | EC50 [6, 29]: 57 ± 17 nM; EC50 [23]: > 10000 nM; EC50 [24]: 150 ± 23 nM; EC50 [25]: 70 ± 6.6 nM; EC50 [26]: 130 ± 69 nM
3 | CC(C)c1ccc2c(c1)OC1(O)c3ccccc3C(=O)C21O (stereo not drawn) [Example 10, 4b,9b-Dihydroxy-7-isopropyl-4bH-benzo[d]indeno[1,2-b]furan-10(9bH)-one] | > 50000 nM | > 50000 nM | > 50000 nM | > 100000 nM | 21 nM | 195 to 198 °C | 750 ± 370 nM | – | 12 ± 2 nM | 1000 ± 570 nM | 360 ± 150 nM | > 50000 nM | > 50000 nM | 3400 ± 1500 nM | 8800 ± 120 nM | 18.4 µg/mL (≈ 62.2 µM) | 14.2 µg/mL (≈ 47.9 µM) | > 50000 nM | > 50000 nM | > 50000 nM | EC50 [6, 29]: 2400 ± 360 nM; EC50 [27]: 1100 ± 580 nM; EC50 [24]: > 50000 nM; EC50 [25]: 8000 ± 2900 nM; EC50 [26]: 5300 ± 1200 nM; EC50 [28]: 90 ± 35 nM; EC50 ([20]; MRC5, incubation at 37° C. in MRC-5 cells, read-out: Echo 9 EC50): 25 ± 5.7 nM
